Results from PMC3742671, “Structure, Antimicrobial Activities and Mode of Interaction with Membranes of Bovel Phylloseptins from the Painted-Belly Leaf Frog, Phyllomedusa sauvagii” (PLoS ONE, 2013).
Ends that are not written are not given here.

How the values were obtained:
S. aureus ATCC BAA-44 = details: multidrug resistant strain; LB medium (pH 7), absorbance at 630 nm; average of three independent experiments in triplicates
Experimental: (§1) The effect of phylloseptins-S was evaluated against several bacterial strains and yeasts (Table 2). Bacteria were cultured in Luria-Bertani broth (LB), whereas yeasts were cultured in Yeast Peptone Dextrose medium (YPD), and minimal inhibitory concentrations (MICs) were determined by measuring the absorbance at 630 nm in 96-well microtitration plates, as described previously. Leishmanicidal activity of phylloseptins-S was also examined against promastigotes of different Leishmania species: Leishmania infantum (strain MHOM/MA/67/ITMAP-263), L. major (MHOM/SU/73/5-ASKH) and L. braziliensis (MHOM/BR/75/M2904). Culture of promastigotes and determination of the growth inhibition were performed as previously described, [22], [23].
(§2) The antimicrobial activity of synthetic PLS-S1 to -S5 was assayed in LB medium (pH 7) against several Gram-negative and Gram-positive bacteria, and multi-drug resistant S. aureus strains. […] The antiparasitic activity of PLSs was also determined against three Leishmania species (L. infantum, L. major, and L. braziliensis). […] Because PLS-S3 contains histidines as basic residues and that approximately only 11% of these residues are positively charged at pH 7, we have evaluated the antibacterial activity at pH 5 at which His residues are predominantly positively charged (∼91%).

K. pneumoniae ATCC 13883 = details: LB medium (pH 7), absorbance at 630 nm; average of three independent experiments in triplicates
Experimental: as §1, §2

S. pyogenes ATCC 19615 = details: LB medium (pH 7), absorbance at 630 nm; average of three independent experiments in triplicates
Experimental: as §1, §2

S. aureus ATCC 43300 = details: strain resistant to methicillin and oxacillin; LB medium (pH 7), absorbance at 630 nm; average of three independent experiments in triplicates
Experimental: as §1, §2

A. baumannii ATCC 19606 = details: LB medium (pH 7), absorbance at 630 nm; average of three independent experiments in triplicates
Experimental: as §1, §2

E. coli ATCC 25922 = details: for MIC: ATCC 25922, pH 7
Experimental: as §1, §2

E. faecalis ATCC 29212 = details: LB medium (pH 7), absorbance at 630 nm; average of three independent experiments in triplicates
Experimental: as §1, §2

S. aureus ST1065 = details: LB medium (pH 7), absorbance at 630 nm; average of three independent experiments in triplicates
Experimental: as §1, §2

P. aeruginosa ATCC 27853 = details: LB medium (pH 7), absorbance at 630 nm; average of three independent experiments in triplicates
Experimental: as §1, §2

E. coli ML-35p = details: LB medium (pH 7), absorbance at 630 nm; average of three independent experiments in triplicates
Experimental: as §1, §2

S. aureus ATCC 25923 = details: LB medium (pH 7), absorbance at 630 nm, 96-well plates; average of three independent experiments in triplicates
Experimental: as §1, §2

[1] = Circular dichroism spectroscopy in SDS micelles; assay type: physicochemical; details: CD, peptide 30 µM in 80 mM SDS
Experimental: (§3) The far-ultraviolet circular dichroism (CD) spectra were recorded as described. Phylloseptins-S (30 µM) were solubilized either in 80 mM sodium dodecyl sulfate (SDS) or in phosphate-buffered saline (PBS: 10 mM phosphate, pH 7.3) containing 1 mg/mL of large unilamellar vesicles (LUVs) of 1,2-dimyristoyl-sn-glycero-3-phosphocholine (DMPC) and 1,2-dimyristoyl-sn-glycero-3-phosphoglycerol (DMPG) (3∶1 mol/mol). DMPC and DMPG were purchased from Avanti Polar Lipids, Inc. Each spectrum was the average of four scans. CD measurements are reported as Δ/n, where Δ is the dichroic increment and n is the number of residues in the peptide.
(§4) Figure 6 Circular dichroism spectra of synthetic phylloseptins-S (30 µM). (A) DMPC/DMPG (3∶1) large unilamellar vesicles in PBS (1 mg/mL). (B) 80 mM SDS. CD measurements are reported as the dichroic increment (Δε) per residue.

[2] = Circular dichroism spectroscopy with DMPC/DMPG (3:1) large unilamellar vesicles; assay type: physicochemical; details: CD, peptide 30 µM, DMPC/DMPG (3:1) LUVs 1 mg/mL in PBS pH 7.3
Experimental: as §3, §4

S. cerevisiae = assay type: cell-based
Experimental: as §1

[3] = system: C. parapsilosis ATCC 22019; assay type: cell-based
Experimental: as §1

Substance | MIC (S. aureus ATCC BAA-44) [µM] | MIC (K. pneumoniae ATCC 13883) [µM] | MIC (S. pyogenes ATCC 19615) [µM] | MIC (S. aureus ATCC 43300) [µM] | MIC (A. baumannii ATCC 19606) [µM] | MIC at pH 5 (E. coli ATCC 25922; ATCC 25922, pH 5) [µM] | MIC (E. coli ATCC 25922) [µM] | MIC (E. faecalis ATCC 29212) [µM] | MIC (S. aureus ST1065) [µM] | MIC (P. aeruginosa ATCC 27853) [µM] | MIC (E. coli ML-35p) [µM] | MIC (S. aureus ATCC 25923) [µM] | helix content [1] [%] | helix content [2] [%] | MIC (S. cerevisiae) [µM] | MIC [3] [µM]
FLSLIPHIVSGVASLAIHF-NH2 [PLS-S3] | >200 | >200 | 12.5 | >200 | >200 | 50 | >200 | >200 | >200 | >200 | >200 | >200 | 44 | 65 | >200 | >200
LLGMIPVAISAISALSKL-NH2 [PLS-S5] | >100 | – | – | >100 | – | – | >100 | 100 | >100 | >100 | >100 | 25 | 20 | 60 | – | >100
